Positions count from the first letter of the chain named. pIC50: −log10 of the molar value. Values after ≈ are worked out from the molar mass of the structure shown.
Tests used:
[1] = Half life in CD-1 mouse plasma at 10 mg/kg, po measured after 8 hrs by LC-MS/MS analysis; assay type: ADME, organism-based; settings: in vivo
[2] = Volume of distribution at steady state in CD-1 mouse plasma at 2 mg/kg, iv measured after 8 hrs by LC-MS/MS analysis; assay type: ADME, organism-based; settings: in vivo
[3] = target: CYP3A4 (Homo sapiens, UniProt P08684); assay: Inhibition of human hepatic CYP3A4 using midazolam as substrate measured after 3 mins by LC-MS analysis relative to control; assay type: ADME, tissue-based; design: concentration or dose not given beside the values; settings: human hepatic CYP3A4 (liver), probe midazolam
Sequence of CYP3A4 (P08684 whole entry): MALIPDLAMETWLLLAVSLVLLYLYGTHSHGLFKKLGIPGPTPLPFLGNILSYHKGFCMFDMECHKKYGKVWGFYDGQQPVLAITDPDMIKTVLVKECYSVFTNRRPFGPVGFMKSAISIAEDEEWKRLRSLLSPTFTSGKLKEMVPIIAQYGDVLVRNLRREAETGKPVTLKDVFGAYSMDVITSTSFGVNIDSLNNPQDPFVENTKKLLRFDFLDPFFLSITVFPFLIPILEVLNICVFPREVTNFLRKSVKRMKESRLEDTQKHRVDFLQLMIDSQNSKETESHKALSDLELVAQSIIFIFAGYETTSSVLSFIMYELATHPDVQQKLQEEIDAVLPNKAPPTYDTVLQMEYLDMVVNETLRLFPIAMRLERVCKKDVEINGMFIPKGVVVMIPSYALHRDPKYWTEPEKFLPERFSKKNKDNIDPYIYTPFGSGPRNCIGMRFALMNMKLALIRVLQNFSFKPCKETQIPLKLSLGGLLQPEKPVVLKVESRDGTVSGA

[4] = Cmax in CD-1 mouse plasma at 10 mg/kg, po measured after 8 hrs by LC-MS/MS analysis; assay type: ADME, organism-based; design: dose 10 mg/kg, time 8 hrs, route po; settings: CD-1, mouse, plasma
[5] = AUC(0 to 8 hrs) in CD-1 mouse plasma at 10 mg/kg, po measured after 8 hrs by LC-MS/MS analysis; assay type: ADME, organism-based; design: dose 10 mg/kg, time 8 hrs, route po; settings: in vivo
[6] = AUC(0 to 12 hrs) in Sprague-Dawley rat plasma at 30 mg/kg, po measured after 24 hrs by LC-MS/MS analysis; assay type: ADME, organism-based; design: time 24 hrs, dose 30 mg/kg, route po; settings: in vivo
[7] = Aqueous solubility of compound at pH 6 by HPLC analysis; assay type: physicochemical; settings: buffer
[8] = target: T1, Low molecular weight phosphotyrosine protein phosphatase (Rattus norvegicus, UniProt P41498); assay: Inhibition of N-terminal His-tagged full length rat LMW-PTP expressed in Escherichia coli BL21(DE3)
T1 sequence (P41498 whole entry): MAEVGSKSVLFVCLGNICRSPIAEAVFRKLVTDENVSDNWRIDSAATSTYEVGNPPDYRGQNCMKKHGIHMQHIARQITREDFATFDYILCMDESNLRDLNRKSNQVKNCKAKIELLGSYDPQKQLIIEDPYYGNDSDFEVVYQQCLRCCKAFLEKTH

[9] = Oral bioavailability in CD-1 mouse plasma at 10 mg/kg measured after 8 hrs by LC-MS/MS analysis; assay type: ADME, organism-based; settings: mouse, in vivo, po, 10 mg/kg, 8 h
[10] = Metabolic stability in human hepatic microsome at 4 uM measured after 30 mins by LC-MS analysis; assay type: ADME; settings: liver microsomes, read-out: Stability
[11] = Inhibition of PTP-Meg2 (unknown origin); design: species or system Homo sapiens
[12] = Half life in Sprague-Dawley rat plasma at 30 mg/kg, po measured after 24 hrs by LC-MS/MS analysis; assay type: ADME, organism-based; settings: in vivo
[13] = target: Dual specificity protein phosphatase 23 (Homo sapiens, UniProt Q9BVJ7); assay: Inhibition of VHZ (unknown origin)
Sequence of Dual specificity protein phosphatase 23 (Q9BVJ7 whole entry): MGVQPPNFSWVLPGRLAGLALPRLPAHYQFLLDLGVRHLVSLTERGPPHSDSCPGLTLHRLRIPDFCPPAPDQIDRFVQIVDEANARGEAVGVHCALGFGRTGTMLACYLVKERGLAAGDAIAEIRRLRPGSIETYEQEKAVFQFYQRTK

[14] = Metabolic stability in dog hepatic microsome at 4 uM measured after 30 mins by LC-MS analysis; assay type: ADME, Canis lupus familiaris; settings: liver microsomes, read-out: Stability
[15] = Half life in CD-1 mouse plasma at 2 mg/kg, iv measured after 8 hrs by LC-MS/MS analysis; assay type: ADME, organism-based; settings: CD-1, mouse, plasma
[16] = target: CYP2D6 (Homo sapiens, UniProt P10635); assay: Inhibition of human hepatic CYP2D6 using bufuralol HCL as substrate measured after 3 mins by LC-MS analysis relative to control; assay type: ADME, tissue-based; design: concentration or dose not given beside the values; settings: human hepatic CYP2D6 (liver), probe bufuralol HCl
Sequence of CYP2D6 (P10635 whole entry): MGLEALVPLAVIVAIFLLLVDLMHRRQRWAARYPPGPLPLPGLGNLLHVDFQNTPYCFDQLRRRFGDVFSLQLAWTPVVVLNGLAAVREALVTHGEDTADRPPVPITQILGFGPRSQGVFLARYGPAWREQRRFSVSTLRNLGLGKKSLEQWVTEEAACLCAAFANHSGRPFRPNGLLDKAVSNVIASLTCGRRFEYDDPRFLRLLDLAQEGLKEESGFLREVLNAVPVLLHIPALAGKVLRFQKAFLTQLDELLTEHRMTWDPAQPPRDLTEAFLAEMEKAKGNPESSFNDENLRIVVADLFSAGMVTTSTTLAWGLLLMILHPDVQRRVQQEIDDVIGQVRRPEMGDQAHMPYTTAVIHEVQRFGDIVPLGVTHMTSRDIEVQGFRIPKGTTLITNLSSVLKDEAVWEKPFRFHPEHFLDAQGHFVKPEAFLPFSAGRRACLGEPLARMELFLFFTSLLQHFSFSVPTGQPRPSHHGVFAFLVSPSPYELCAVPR

[17] = target: T2, Low molecular weight phosphotyrosine protein phosphatase (Mus musculus, UniProt Q9D358); assay: Inhibition of N-terminal His-tagged full length mouse LMW-PTP expressed in Escherichia coli BL21(DE3) by […] analysis
T2 sequence (Q9D358 whole entry): T1 sequence (P41498 whole entry) with N35K, K65R, R80K, H158Y

[18] = target: T3, Low molecular weight phosphotyrosine protein phosphatase (Homo sapiens, UniProt P24666); assay: Inhibition of His-tagged human LMW-PTP expressed in Escherichia coli BL21 using pNPP as substrate incubated for 10 mins by microplate reader based spectrophotometric analysis
T3 sequence (P24666 whole entry): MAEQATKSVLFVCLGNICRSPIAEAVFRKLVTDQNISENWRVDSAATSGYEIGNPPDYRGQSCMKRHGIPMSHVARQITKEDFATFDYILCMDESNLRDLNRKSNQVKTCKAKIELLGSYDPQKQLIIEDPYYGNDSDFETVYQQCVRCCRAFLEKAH

[19] = Unbound Cmax in plasma of CD-1 mouse at 10 mg/kg, po measured after 8 hrs by LC-MS/MS analysis; assay type: ADME, organism-based; settings: in vivo
[20] = Unbound Cmax in plasma of CD-1 mouse at 2 mg/kg, iv measured after 8 hrs by LC-MS/MS analysis; assay type: ADME, organism-based; settings: in vivo
[21] = Plasma protein binding in mouse assessed as unbound fraction measured after 4.5 hrs by LC-MS/MS analysis; assay type: ADME, cell-free
[22] = AUC(0 to 8 hrs) in CD-1 mouse plasma at 2 mg/kg, iv measured after 8 hrs by LC-MS/MS analysis; assay type: ADME, organism-based; design: dose 2 mg/kg, time 8 hrs, route iv; settings: in vivo
[23] = Cmax in Sprague-Dawley rat plasma at 30 mg/kg, po measured after 24 hrs by LC-MS/MS analysis; assay type: ADME, organism-based; design: time 24 hrs, dose 30 mg/kg, route po; settings: in vivo
[24] = Unbound Cmax in plasma of Sprague-Dawley rat at 30 mg/kg, po measured after 24 hrs by LC-MS/MS analysis; assay type: ADME, organism-based; settings: in vivo
[25] = Tmax in Sprague-Dawley rat plasma at 30 mg/kg, po measured after 24 hrs by LC-MS/MS analysis; assay type: ADME, organism-based; settings: in vivo
[26] = Metabolic stability in mouse hepatic microsome at 4 uM measured after 30 mins by LC-MS analysis; assay type: ADME; settings: liver microsomes, read-out: Stability
[27] = Cmax in CD-1 mouse plasma at 2 mg/kg, iv measured after 8 hrs by LC-MS/MS analysis; assay type: ADME, organism-based; design: time 8 hrs, dose 2 mg/kg, route iv
[28] = target: CYP2C9 (Homo sapiens, UniProt P11712); assay: Inhibition of human hepatic CYP2C9 using diclofenac as substrate measured after 10 mins by LC-MS analysis relative to control; assay type: ADME, tissue-based; design: concentration or dose not given beside the values; settings: human hepatic CYP2C9 (liver), probe diclofenac
Sequence of CYP2C9 (P11712 whole entry): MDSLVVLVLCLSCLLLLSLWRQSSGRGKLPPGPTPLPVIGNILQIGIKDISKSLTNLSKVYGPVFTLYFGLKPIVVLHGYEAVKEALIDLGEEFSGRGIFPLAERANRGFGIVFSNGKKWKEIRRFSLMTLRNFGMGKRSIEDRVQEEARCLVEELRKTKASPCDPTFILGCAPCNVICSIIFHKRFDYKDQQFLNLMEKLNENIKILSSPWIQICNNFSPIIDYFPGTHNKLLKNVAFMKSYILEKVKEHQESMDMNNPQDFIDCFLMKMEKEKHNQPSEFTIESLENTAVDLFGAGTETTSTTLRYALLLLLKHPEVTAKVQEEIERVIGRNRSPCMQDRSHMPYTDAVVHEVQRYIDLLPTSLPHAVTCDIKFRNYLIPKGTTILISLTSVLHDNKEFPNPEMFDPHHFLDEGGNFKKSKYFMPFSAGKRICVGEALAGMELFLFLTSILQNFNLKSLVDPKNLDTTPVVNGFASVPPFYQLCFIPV

## Cc1c(Br)cc(NC(=O)CS(=O)(=O)O)cc1Br
[1]
  t1/2: 4.2 h
[2]
  Vdss: 0.58 L/kg
[3]
  inhibition at 0.05 h: 15%
[4]
  Cmax: 2000 nM
[5]
  AUC: 8.8 µM·h
[6]
  AUC: 21.1 µM·h
[7]
  solubility: 740 µg/mL (≈ 1910 µM)
[8]
  pIC50: 7.21
[9]
  F: 43%
[10]
  remaining at 0.5 h, 4 µM: 7%
[11]
  pIC50: < 4.00
[12]
  t1/2: 3.6 h
[13]
  pIC50: < 4.00
[14]
  remaining at 0.5 h, 4 µM: 23%
[15]
  half-life: 1.5 h
[16]
  inhibition at 0.05 h: 1%
[17]
  pIC50: 7.21
[18]
  pIC50: 5.66
[19]
  fCmax: < 16 nM
[20]
  fCmax: < 16 nM
[21]
  Fu: < 0.008
[22]
  AUC: 4.1 µM·h
[23]
  Cmax: 3030 nM
[24]
  fCmax: < 85 nM
[25]
  Tmax: 1.7 h
[26]
  remaining at 0.5 h, 4 µM: 0%
[27]
  Cmax: 2000 nM
[28]
  inhibition at 10 min: 18%
